From patent publication EP0414952A1, “Dithiolane derivatives” (NIHON NOHYAKU CO., LTD., priority 1989, dated 1991)

Test system: carbon tetrachloride-induced hepatic disorders
Experiment: Effect of inhibiting carbon tetrachloride-induced hepatic disorders
Type: in vivo
Settings: male mice of dd strain, mean of 5 mice; for Hepatic Disorder index: 30 mg/kg orally in olive oil 6 hours before carbon tetrachloride 0.05 ml/kg orally, sacrificed 24 hours after, visual score 0 (healthy liver) to 6 (heavy disorder); for p-GPT(K.U.): plasma glutamic-pyruvic transaminase activity, Reitman-Frankel method, 30 mg/kg orally 6 hours before carbon tetrachloride 0.05 ml/kg orally, 24 hours after, values above 2,100 counted as 2,100
Description: Effect of inhibiting carbon tetrachloride-induced hepatic disorders A test compound was dissolved or suspended in olive oil and the resulting solution or suspension was orally administered to male mice (6 week age) of dd strain in a dose of 30 mg/kg. Six hours after the administration, carbon tetrachloride was orally administered to the mice in a dose of 0.05 ml/kg. The mice were sacrificed 24 hours after the administration of carbon tetrachloride. Degree of hepatic disorders was visually examined. On the other hand, blood was collected when they were sacrificed and plasma was obtained by centrifugation. Plasma glutamic-pyruvic transaminase (GPT) activity was determined according to the Reitman-Frankel method and the activity was expressed by Karmen Unit (K.U.). The hepatic disorder index is evaluated as below. [table] Five (5) mice were used in each group and the results are shown by a mean value. Further with respect to GPT activity, no further measurement was conducted with the case showing more than 2,100 units but for brevity, it was calculated as 2,100 units.

SMILES | Hepatic Disorder index | p-GPT(K.U.)
CN(C)C1SC(=C2C(=O)CCCC2=O)SC1N(C)C (centres unmarked) [Compound No. 1, 2-((4,5-bis(dimethylamino)-1,3-dithiolan)-2-ylidene)-1,3-dioxocyclohexane] | 0.6 | 17
O=C1CCCC(=O)C1=C1SC(N2CCOCC2)C(N2CCOCC2)S1 (centres unmarked) [Compound No. 2] | 0.5 | 12
CN(C)C1SC(=C2C(=O)CC(C)(C)CC2=O)SC1N(C)C (centres unmarked) [Compound No. 3] | 1.6 | 49
CCC(=O)OC1SC(=C2C(=O)CCCC2=O)SC1N(C)C (centres unmarked) [Compound No. 7] | 0 | 15
CCOC(=O)OC1SC(=C2C(=O)CCCC2=O)SC1N(C)C (centres unmarked) [Compound No. 8] | 0 | 18
CN(C)C1SC(=C2C(=O)CC(C)(C)CC2=O)SC1O (centres unmarked) [Compound No. 13] | 0.4 | 157
CCN1CCN(C2SC(=C3C(=O)CC(C)(C)CC3=O)SC2OC(C)=O)CC1 (centres unmarked) [Compound No. 19] | 1.0 | 297
CC(=O)OC1SC(=C2C(=O)CC(c3ccc(C)cc3)CC2=O)SC1N(C)C (centres unmarked) [Compound No. 30] | 0.5 | 229
CC(=O)OC1SC(=C2C(=O)CC(c3ccco3)CC2=O)SC1N1CCN(C)CC1 (centres unmarked) [Compound No. 46] | 0.2 | 205
Cc1ccc(C2CC(=O)C(=C3SC(O)C(N(C)C)S3)C(=O)C2)o1 (centres unmarked) [Compound No. 47] | 1.6 | 430
